Key:
TLR8 = target: T1, TLR8 (Homo sapiens, UniProt Q9NR97); assay: HEK-BLUE-hTLR8 cell SEAP reporter assay (Quanti-Blue); type: cell-based; details: HEK-BLUE-hTLR8 cells, 0.5 nM to 15 µM, 24 hours
T1 construct: host or cells: HEK293 (HEK-BLUE-hTLR8)
T1 sequence (Q9NR97 27-1041): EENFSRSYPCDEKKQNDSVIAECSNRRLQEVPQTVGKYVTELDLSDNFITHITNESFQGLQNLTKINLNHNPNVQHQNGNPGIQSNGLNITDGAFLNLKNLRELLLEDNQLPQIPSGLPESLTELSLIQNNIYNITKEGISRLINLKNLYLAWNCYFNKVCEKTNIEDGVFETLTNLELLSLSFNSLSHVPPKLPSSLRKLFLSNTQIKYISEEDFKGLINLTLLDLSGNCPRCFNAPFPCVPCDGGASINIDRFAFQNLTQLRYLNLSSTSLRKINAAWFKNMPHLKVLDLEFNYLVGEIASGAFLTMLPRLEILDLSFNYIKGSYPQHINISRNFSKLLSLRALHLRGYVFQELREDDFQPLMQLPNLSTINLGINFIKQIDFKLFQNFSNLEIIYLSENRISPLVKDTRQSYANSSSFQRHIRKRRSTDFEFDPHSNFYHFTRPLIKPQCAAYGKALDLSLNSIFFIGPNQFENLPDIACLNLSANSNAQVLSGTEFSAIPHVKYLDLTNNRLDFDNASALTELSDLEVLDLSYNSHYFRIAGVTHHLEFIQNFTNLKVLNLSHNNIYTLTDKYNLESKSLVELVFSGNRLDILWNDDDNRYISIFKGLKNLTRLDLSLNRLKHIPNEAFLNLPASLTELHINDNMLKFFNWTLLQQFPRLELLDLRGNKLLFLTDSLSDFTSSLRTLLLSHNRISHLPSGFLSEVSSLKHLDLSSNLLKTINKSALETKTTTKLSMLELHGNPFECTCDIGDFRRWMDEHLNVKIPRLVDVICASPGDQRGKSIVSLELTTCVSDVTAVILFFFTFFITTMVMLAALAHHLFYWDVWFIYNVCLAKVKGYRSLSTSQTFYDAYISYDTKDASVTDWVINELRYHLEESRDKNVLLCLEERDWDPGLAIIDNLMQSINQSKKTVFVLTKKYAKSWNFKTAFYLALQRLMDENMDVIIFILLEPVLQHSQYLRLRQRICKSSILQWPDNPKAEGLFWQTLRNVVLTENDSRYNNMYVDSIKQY
Procedure: (§1) In this experiment, the biological activity of TLR7 and TLR8 in the compound of formula I was detected using cell tests. This method was conducted in human embryonic kidney cells (HEK293) expressing TLR family members such as TLR4, TLR7, TLR8 or TLR9. TLR agonists activate TLRs, triggering the activation of downstream NF-kB, which in turn activates the secreted embryonic alkaline phosphatase (SEAP) reporter gene. The activity of SEAP was detected using the Quanti-Blue (InvivoGen) reagent, thereby reflecting the activities of TLR7 and TLR8 agonists.
(§2) The detailed experimental method was as follows: HEK-BLUE-hTLR7 and HEK-BLUE-hTLR8 cell lines were purchased from Invivogen Company and cultured in DMEM medium containing 4.5 g/L glucose (Sigma-Aldrich) and 10% fetal bovine serum under the conditions of temperature 37°C, humidity 95% and 5% CO2.
(§3) The compound was tested at a concentration ranging from 0.5 nM to 15 µM over a total of 10 concentration gradients. TLR7 or TLR8 agonists with known activity were added as positive controls, and 1 µL of DMSO was added as a negative control.
(§4) The cells were treated as follows: the cells were removed from the culture dish and centrifuged to remove the medium, and resuspended in a T-150 bottle with 10 mL of preheated PBS, 12 mL of preheated medium was added, and the cells were gently pipetted up and down and counted under a microscope. A 200,000/mL single-cell suspension was immediately prepared with medium and added to a 96-well plate at 200 µL/well (40,000/well). The final concentration of DMSO was 0.5%.
(§5) The compound was added and incubated in an incubator at 37°C, 5% CO2 for 24 hours.
(§6) A supernatant at 20 µL/well was aspirated into 180 µL of preheated Quanti-Blue at 37°C, incubated at 37°C for 1.5 hours, and detected for the absorbance (OD value) with a spectrophotometer at 650 nm. The formula for calculating the agonistic effect is as follows:
(§7) Effect % = (average OD value of the drug-administered group - average OD value of the DMSO group) / (average OD value of the positive drug group - average OD value of the DMSO group) × 100
(§8) Graphpad software was used to fit the concentration-effect curve, and EC50 was calculated. The test results are shown in Table 15 (A denotes < 250 nM, B denotes 250 nM-1 µM, C denotes 1 µM-2 µM, D denotes > 2 µM, and - denotes not listed or not tested): Table 15

TLR7 = target: T2, TLR7 (Homo sapiens, UniProt Q9NYK1); assay: HEK-BLUE-hTLR7 cell SEAP reporter assay (Quanti-Blue); type: cell-based; details: HEK-BLUE-hTLR7 cells, 0.5 nM to 15 µM, 24 hours
T2 construct: host or cells: HEK293 (HEK-BLUE-hTLR7)
T2 sequence (Q9NYK1 27-1049): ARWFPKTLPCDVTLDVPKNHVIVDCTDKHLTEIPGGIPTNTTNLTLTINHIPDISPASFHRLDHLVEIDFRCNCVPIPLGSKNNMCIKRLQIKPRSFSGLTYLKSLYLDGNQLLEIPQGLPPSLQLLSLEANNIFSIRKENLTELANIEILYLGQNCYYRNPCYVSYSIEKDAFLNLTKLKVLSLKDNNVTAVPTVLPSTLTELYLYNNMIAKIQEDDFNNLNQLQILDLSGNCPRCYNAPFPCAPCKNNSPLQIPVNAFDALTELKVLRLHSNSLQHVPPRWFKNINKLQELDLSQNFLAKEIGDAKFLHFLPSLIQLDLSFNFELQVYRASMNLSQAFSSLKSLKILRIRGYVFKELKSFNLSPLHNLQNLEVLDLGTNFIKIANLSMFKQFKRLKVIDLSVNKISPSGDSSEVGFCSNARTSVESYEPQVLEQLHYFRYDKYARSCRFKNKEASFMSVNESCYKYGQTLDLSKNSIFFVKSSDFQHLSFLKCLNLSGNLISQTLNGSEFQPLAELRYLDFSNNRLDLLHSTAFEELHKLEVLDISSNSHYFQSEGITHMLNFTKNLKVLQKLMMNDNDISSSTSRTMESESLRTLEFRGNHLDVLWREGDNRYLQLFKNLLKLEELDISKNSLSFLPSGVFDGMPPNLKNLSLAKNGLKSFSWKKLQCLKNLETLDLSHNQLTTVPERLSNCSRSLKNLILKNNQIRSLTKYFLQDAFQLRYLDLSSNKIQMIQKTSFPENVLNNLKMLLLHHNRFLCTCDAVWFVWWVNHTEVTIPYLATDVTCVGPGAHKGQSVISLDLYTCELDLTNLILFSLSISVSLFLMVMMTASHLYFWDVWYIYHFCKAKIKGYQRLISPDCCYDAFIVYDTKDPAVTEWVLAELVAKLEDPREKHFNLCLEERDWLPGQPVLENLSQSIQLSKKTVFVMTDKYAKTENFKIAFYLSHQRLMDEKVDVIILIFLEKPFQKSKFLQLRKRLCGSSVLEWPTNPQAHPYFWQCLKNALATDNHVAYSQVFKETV
Procedure: as §1, §2, §3, §4, §5, §6, §7, §8

| EC50 (TLR8) | EC50 (TLR7) | Compound |
| --- | --- | --- |
| < 0.25 µM | > 2 µM | CCCN(CCC)C(=O)C1=Cc2ccc(C3(C(=O)Nc4cnc5c(c4)CNCC5)CC3)cc2N=C(N)C1 [Compound 1, 2-amino-N,N-dipropyl-8-(1-((5,6,7,8-tetrahydro-1,6-naphthyridin-3-yl)carbamoyl)cyclopropyl)-3H-benzo[b]azepine-4-formamide] |
| 0.25 to 1 µM | > 2 µM | CCCN(CCO)C(=O)C1=Cc2c(F)cc(C3(C(=O)Nc4cnc5c(c4)CNCC5)CC3)cc2N=C(N)C1 [Compound 6, 2-amino-6-fluoro-N-(2-hydroxyethyl)-N-propyl-8-(1-((5,6,7,8-tetrahydro-1,6-naphthyridin-3-yl)carbamoyl)cyclopropyl)-3H-benzo[b]azepine-4-formamide] |
| < 0.25 µM | > 2 µM | CCCN(CCO)C(=O)C1=Cc2ccc(C3(C(=O)Nc4cncc(CN)c4)CC3)cc2N=C(N)C1 [Compound 7, 2-amino-8-(1-((5-(aminomethyl)pyridin-3-yl)carbamoyl)cyclopropyl)-N-(2-hydroxyethyl)-N-propyl-3H-benzo[b]azepine-4-formamide] |
| < 0.25 µM | > 2 µM | CCCN(CCC)C(=O)C1=Cc2c(F)cc(C3(C(=O)Nc4cnc5c(c4)CNCC5)CC3)cc2N=C(N)C1 [Compound 3, 2-amino-6-fluoro-N,N-dipropyl-8-(1-((5,6,7,8-tetrahydro-1,6-naphthyridin-3-yl)carbamoyl)cyclopropyl)-3H-benzo[b]azepine-4-formamide] |
| 0.25 to 1 µM | > 2 µM | CCCN(CCO)C(=O)C1=Cc2ccc(C3(C(=O)Nc4cnc5c(c4)CNCC5)CC3)cc2N=C(N)C1 [Compound 2, 2-amino-N-(2-hydroxyethyl)-N-propyl-8-(1-((5,6,7,8-tetrahydro-1,6-naphthyridin-3-yl)carbamoyl)cyclopropyl)-3H-benzo[b]azepine-4-formamide] |
| < 0.25 µM | – | CCCN(OCC)C(=O)C1=Cc2ccc(C3(C(=O)Nc4cnc5c(c4)CNCC5)CC3)cc2N=C(N)C1 [Compound 23, 2-amino-N-ethoxy-N-propyl-8-(1-((5,6,7,8-tetrahydro-1,6-naphthyridin-3-yl)carbamoyl)cyclopropyl)-3H-benzo[b]azepine-4-formamide] |
| < 0.25 µM | – | CCCN(CCO)C(=O)C1=Cc2ccc(C3(C(=O)Nc4cccc(N)c4)CC3)cc2N=C(N)C1 [Compound 19, 2-amino-8-(1-((3-aminophenyl)carbamoyl)cyclopropyl)-N-(2-hydroxyethyl)-N-propyl-3H-benzo[b]azepine-4-formamide] |
| 0.25 to 1 µM | – | CCCN(CCO)C(=O)C1=Cc2ccc(C3(C(=O)Nc4cnc5c(c4)CN(C(=O)[C@H](CCCNC(N)=O)NC(=O)[C@@H](NC(=O)CCCCCN4C(=O)C=CC4=O)C(C)C)CC5)CC3)cc2N=C(N)C1 [II-19, 2-amino-8-(1-((6-((S)-2-((S)-2-(6-(2,5-dioxo-2,5-dihydro-1H-pyrrol-1-yl)hexanoylamino)-3-methylbutanoylamino)-5-ureidopentanoyl)-5,6,7,8-tetrahydro-1,6-naphthyridin-3-yl)carbamoyl)cyclopropyl)-N-(2-hydroxyethyl)-N-propyl-3H-benzo[b]azepine-4-formamide] |

| Compound | EC50 (TLR8) | EC50 (TLR7) |
| --- | --- | --- |
| CCCN(CCO)C(=O)C1=Cc2ccc(C3(C(=O)Nc4cnc5c(c4)CN(C(=O)CNC(=O)[C@H](Cc4ccccc4)NC(=O)CNC(=O)CNC(=O)CCCCCN4C(=O)C=CC4=O)CC5)CC3)cc2N=C(N)C1 | 0.25 to 1 µM | – |
| CCCN(CCOP(=O)(N[C@@H](C)C(=O)OCc1ccccc1)Oc1ccccc1)C(=O)C1=Cc2ccc(C3(C(=O)Nc4cnc5c(c4)CNCC5)CC3)cc2N=C(N)C1 (single isomer, unassigned) [Compound 25-1] | < 0.25 µM | – |
| CCCN(CCO)C(=O)C1=Cc2ccc(C3(C(=O)Nc4cnc5c(c4)CN(C(=O)CCOCCOCCOCCOCCOCCOCCNC(=O)[C@H](CCCNC(N)=O)NC(=O)[C@@H](NC(=O)CCCCCN4C(=O)C=CC4=O)C(C)C)CC5)CC3)cc2N=C(N)C1 [II-18, 2-amino-8-(1-((6-((24S,27S)-34-(2,5-dioxo-2,5-dihydro-1H-pyrrol-1-yl)-27-isopropyl-23,26,29-trioxo-24-(3-ureidopropyl)-4,7,10,13,16,19-hexaoxa-22,25,28-triazatetratriacontanacyl)-5,6,7,8-tetrahydro-1,6-naphthyridin-3-yl)carbamoyl)cyclopropyl)-N-(2-hydroxyethyl)-N-propyl-3H-benzo[b]azepine-4-formamide] | 0.25 to 1 µM | – |

From patent publication EP4596536A1 (Shanghai de Novo Pharmatech Co., Ltd., priority 2022, dated 2024)
